Test results from US12552783B2, “Modulators of proteolysis and associated methods of use” (Arvinas Operations, Inc., priority 2018, dated 2026).

Target: KRas (Homo sapiens, UniProt P01116, G12C)
Test: KRas degradation in NCI-H2030 cells by Western blot, normalized to GAPDH (data of Table 14)
Assay type: cell-based
Set-up: host or cells: NCI-H2030
Settings: for Percent Degradation at Indicated Concentration (μM): H2030; for Dmax: NCI-H2030
Method in brief: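 Cells serum-starved 24 h, then treated at 0.3, 1 and 3 μM in 0.1% DMSO, 24 h for VHL-based compounds and 72 h for others. Lysates (10 μg protein) immunoblotted; KRas normalized to GAPDH, degradation visually estimated below 25% or quantified versus DMSO lane, giving DC50 and DMax.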

Compound	Percent Degradation at Indicated Concentration (μM) (0.3 μM)	Percent Degradation at Indicated Concentration (μM) (1 μM)	Percent Degradation at Indicated Concentration (μM) (3 μM)	Dmax [%]
C=CC(=O)N1CCN(c2nc(NCCC(=O)N(C)CCOCCOCCOCCOc3ccc4c(c3)C(=O)N(C3CCC(=O)NC3=O)C4=O)nc3c(F)c(-c4c(O)cccc4F)c(Cl)cc23)CC1 [compound 73, 3-(((S)-4-(4-acryloylpiperazin-1-yl)-6-chloro-8-fluoro-7-(2-fluoro-6-hydroxyphenyl)quinazolin-2-yl)amino)-N-(2-(2-(2-(2-((2-(2,6-dioxopiperidin-3-yl)-1,3-dioxoisoindolin-5-yl)oxy)ethoxy)ethoxy)ethoxy)ethyl)-N-methylpropanamide]	C (Percent Degradation: C ≤ 35)	C (Percent Degradation: C ≤ 35)	C (Percent Degradation: C ≤ 35)	≤ 35
C=CC(=O)N1CCN(c2nc(NCCC(=O)N(C)CCOCCOCCOCCOCCOc3ccc4c(c3)C(=O)N(C3CCC(=O)NC3=O)C4=O)nc3c(F)c(-c4c(O)cccc4F)c(Cl)cc23)CC1 [compound 75, 3-(((S)-4-(4-acryloylpiperazin-1-yl)-6-chloro-8-fluoro-7-(2-fluoro-6-hydroxyphenyl)quinazolin-2-yl)amino)-N-(14-((2-(2,6-dioxopiperidin-3-yl)-1,3-dioxoisoindolin-5-yl)oxy)-3,6,9,12-tetraoxatetradecyl)-N-methylpropanamide]	C (Percent Degradation: C ≤ 35)	C (Percent Degradation: C ≤ 35)	C (Percent Degradation: C ≤ 35)	≤ 35
C=CC(=O)N1CCN(c2nc(NCCC(=O)N(C)CCOCCOc3ccc4c(c3)CN(C3CCC(=O)NC3=O)C4=O)nc3c(F)c(-c4c(O)cccc4F)c(Cl)cc23)CC1 [compound 89, 3-((4-(4-acryloylpiperazin-1-yl)-6-chloro-8-fluoro-7-((S)-2-fluoro-6-hydroxyphenyl)quinazolin-2-yl)amino)-N-(2-(2-((2-(2,6-dioxopiperidin-3-yl)-1-oxoisoindolin-5-yl)oxy)ethoxy)ethyl)-N-methylpropanamide]	C (Percent Degradation: C ≤ 35)	C (Percent Degradation: C ≤ 35)	C (Percent Degradation: C ≤ 35)	≤ 35
C=CC(=O)N1CCN(c2nc(NCCC(=O)N(C)CCOCCOCCOCCOc3ccc4c(c3)CN(C3CCC(=O)NC3=O)C4=O)nc3c(F)c(-c4c(O)cccc4F)c(Cl)cc23)CC1 [compound 93, 3-((4-(4-acryloylpiperazin-1-yl)-6-chloro-8-fluoro-7-((S)-2-fluoro-6-hydroxyphenyl)quinazolin-2-yl)amino)-N-(2-(2-(2-(2-((2-(2,6-dioxopiperidin-3-yl)-1-oxoisoindolin-5-yl)oxy)ethoxy)ethoxy)ethoxy)ethyl)-N-methylpropanamide]	C (Percent Degradation: C ≤ 35)	C (Percent Degradation: C ≤ 35)	C (Percent Degradation: C ≤ 35)	≤ 35
C=CC(=O)N1CCN(c2nc(NCCC(=O)N(C)CCOCCOCCOCCOCCOc3ccc4c(c3)CN(C3CCC(=O)NC3=O)C4=O)nc3c(F)c(-c4c(O)cccc4F)c(Cl)cc23)CC1 [compound 95, 3-(((S)-4-(4-acryloylpiperazin-1-yl)-6-chloro-8-fluoro-7-(2-fluoro-6-hydroxyphenyl)quinazolin-2-yl)amino)-N-(14-((2-(2,6-dioxopiperidin-3-yl)-1-oxoisoindolin-5-yl)oxy)-3,6,9,12-tetraoxatetradecyl)-N-methylpropanamide]	C (Percent Degradation: C ≤ 35)	C (Percent Degradation: C ≤ 35)	C (Percent Degradation: C ≤ 35)	≤ 35
